According to US20240401154A1, “SYNTHESIS AND PREPARATION OF ULTRA-LOW VISCOSITY AND HIGH MAGNETIC SUSCEPTIBILITY MAGNETIC IONIC LIQUIDS” (priority 2023, published 2024):
Marks after values point to notes of the source that are not given here.

How the values were obtained:
Format in all cases: physicochemical
[1] = Viscosity, Brookfield DVI cone and plate viscometer; conditions: 21.7° C.; neat MIL dried 48 hours under vacuum
Description: A Brookfield DVI cone and plate viscometer equipped with a CPA-51Z cone spindle was employed to obtain viscosity measurements at […] using approximately 0.5 g of each MIL after extensive drying for 48 hours under vacuum. Viscosity measurements were conducted at 21.7° C. for 15 lanthanide and transition metal MILs examined in this study.
Viscosity measurements were conducted at 21.7° C. for 15 lanthanide and transition metal MILs examined in this study.

[2] = Effective magnetic moment from magnetic susceptibility balance (MSB); conditions: per formula unit
Description: Magnetic properties were analyzed using a magnetic susceptibility balance (MSB, Sherwood Scientific, Cambridge, UK) and a Quantum Design Superconducting Quantum Interference Device (SQUID) magnetometer (MPMS XL-7). The magnetic properties of transition metal MILs were further studied using a SQUID magnetometer to confirm their paramagnetic nature as well as if any magnetic transition occurs in the samples.
Magnetic susceptibility (XM) was calculated through Equation (1).
Effective magnetic moment (μeff) was calculated through Equation (2). In Equation (2), T represents the temperature at which the magnetic susceptibility measurements were conducted.
15 MILs incorporating rare-earth and transition metals were examined using a magnetic susceptibility balance (MSB).

[3] = Solubility of MILs in organic solvents and water
Source text: The solubility of lanthanide and transition metal MILs was investigated in popular traditional organic solvents. […]
The solubility of lanthanide and transition metal MILs was investigated in popular traditional organic solvents.

[4] = Thermal stability, MIL as GC stationary phase with FID; conditions: exponential increase in response beyond 2,000 pA
Description: (§1) The thermal stability of MILs was measured from 40 to 350° C. at a ramp rate of 5° C. min^−1 by performing thermogravimetric analysis (TGA) using a NETZSCH STA 449 F1 Jupiter thermal analyzer (Selb, Germany). To further investigate the thermal stability of MILs using a more sensitive technique, the solvents were employed as a gas chromatographic (GC) stationary phase and subjected to an oven temperature program from 40 to 200° C. at a ramp rate of 1° C. min^−1 and decomposition/degradation products detected using an ultra-sensitive flame ionization detector (FID), with all measurements being performed on an Agilent Technologies 7890B gas chromatograph (Santa Clara, CA, USA).
To further investigate the thermal stability of MILs using a more sensitive technique, the solvents were employed as a gas chromatographic (GC) stationary phase and subjected to an oven temperature program from 40 to 200° C. at a ramp rate of 1° C. min^−1 and decomposition/degradation products detected using an ultra-sensitive flame ionization detector (FID).

[5] = Thermal stability by thermogravimetric analysis (TGA); conditions: TGA at 10% weight loss
Description: as §1
Volitization/degradation of MILs as a function of temperature were measured using thermogravimetric analysis. The thermal stability of magnetic ionic liquids was measured from 40 to 350° C. at a ramp rate of 5° C. min^−1 by performing thermogravimetric analysis (TGA) using a NETZSCH STA 449 F1 Jupiter thermal analyzer (Selb, Germany).
To investigate the ability of DGE-based MILs to withstand elevated temperatures without undergoing degradation/decomposition, their thermal stabilities were investigated using thermogravimetric analysis (TGA). FIG. 13 through FIG. 27 display thermograms for MILs 1 to 15. The thermogram results are summarized in greater detail in the following paragraphs.

[6] = acetone, chloroform, dichloromethane, acetonitrile, methanol, ethanol, diethyl ether, ethyl acetate, isopropanol at 20% (w/v)
[7] = hexane, heptane, benzene, toluene at 10% (w/v)
[8] = hexane, heptane, benzene, toluene at 20% (w/v)
[9] = twelve organic solvents (without acetonitrile) at 50% (w/v)

## CCCCCCOC(=O)COCC(=O)OCCCCCC.CCCCCCOC(=O)COCC(=O)OCCCCCC.CCCCCCOC(=O)COCC(=O)OCCCCCC.CCCCCCOC(=O)COCC(=O)OCCCCCC.CCCCCCOC(=O)COCC(=O)OCCCCCC.CCCCCCOC(=O)COCC(=O)OCCCCCC.O=C(C=C([O-])C(F)(F)F)C(F)(F)F.O=C(C=C([O-])C(F)(F)F)C(F)(F)F.O=C(C=C([O-])C(F)(F)F)C(F)(F)F.O=C(C=C([O-])C(F)(F)F)C(F)(F)F.O=C(C=C([O-])C(F)(F)F)C(F)(F)F.O=C(C=C([O-])C(F)(F)F)C(F)(F)F.[Mn+2].[Mn+2].[Mn+2] [compound 3]
[1]
  Viscosity (cP): 63.2 cP
[2]
  μeff, effective magnetic moment: 10.42 μB
[3]; [6]
  Solubility: S^b (soluble in acetone, chloroform, dichloromethane, acetonitrile, methanol, ethanol, diethyl ether, ethyl acetate, and isopropanol at 20% (w/v).)
[3]; acetonitrile at 50% (w/v)
  Solubility: S^e (insoluble in acetonitrile at 50% (w/v).)
[3]; [7]
  Solubility: S^a (soluble in hexane, heptane, benzene, and toluene at 10% (w/v).)
[3]; [8]
  Solubility: S^c (soluble in hexane, heptane, benzene, and toluene at 20% (w/v).)
[3]; [9]
  Solubility: S^d (soluble in acetone, chloroform, dichloromethane, methanol, ethanol, diethyl ether, ethyl acetate, isopropanol hexane, heptane, benzene, and toluene at 50% (w/v).)
[3]; water at 0.01% (w/v)
  Solubility: S^f (insoluble in water at 0.01% (w/v).)
[4]
  Onset of MIL volatilization (° C.)^1: 168 °C
[5]
  Onset of MIL volatilization (° C.)^2: 256.8 °C

## CCCCCCCCOC(=O)c1ccc(C(=O)OCCCCCCCC)o1.CCCCCCCCOC(=O)c1ccc(C(=O)OCCCCCCCC)o1.CCCCCCCCOC(=O)c1ccc(C(=O)OCCCCCCCC)o1.CCCCCCCCOC(=O)c1ccc(C(=O)OCCCCCCCC)o1.CCCCCCCCOC(=O)c1ccc(C(=O)OCCCCCCCC)o1.CCCCCCCCOC(=O)c1ccc(C(=O)OCCCCCCCC)o1.O=C(C=C([O-])C(F)(F)F)C(F)(F)F.O=C(C=C([O-])C(F)(F)F)C(F)(F)F.O=C(C=C([O-])C(F)(F)F)C(F)(F)F.O=C(C=C([O-])C(F)(F)F)C(F)(F)F.O=C(C=C([O-])C(F)(F)F)C(F)(F)F.O=C(C=C([O-])C(F)(F)F)C(F)(F)F.[Mn+2].[Mn+2].[Mn+2] [compound 12]
[1]
  Viscosity (cP): 291.8^b cP
[2]
  μeff, effective magnetic moment: 10.04 μB
[3]; [6]
  Solubility: S^b (soluble in acetone, chloroform, dichloromethane, acetonitrile, methanol, ethanol, diethyl ether, ethyl acetate, and isopropanol at 20% (w/v).)
[3]; [7]
  Solubility: S^a (soluble in hexane, heptane, benzene, and toluene at 10% (w/v).)
[3]; [8]
  Solubility: S^c (soluble in hexane, heptane, benzene, and toluene at 20% (w/v).)
[3]; [9]
  Solubility: S^d (soluble in acetone, chloroform, dichloromethane, methanol, ethanol, diethyl ether, ethyl acetate, isopropanol hexane, heptane, benzene, and toluene at 50% (w/v).)
[3]; water at 0.01% (w/v)
  Solubility: S^f (insoluble in water at 0.01% (w/v).)
[4]
  Onset of MIL volatilization (° C.)^1: 144 °C
[5]
  Onset of MIL volatilization (° C.)^2: 160.4 °C

## CCCCCCCCOC(=O)COCC(=O)OCCCCCCCC.CCCCCCCCOC(=O)COCC(=O)OCCCCCCCC.CCCCCCCCOC(=O)COCC(=O)OCCCCCCCC.CCCCCCCCOC(=O)COCC(=O)OCCCCCCCC.CCCCCCCCOC(=O)COCC(=O)OCCCCCCCC.CCCCCCCCOC(=O)COCC(=O)OCCCCCCCC.O=C(C=C([O-])C(F)(F)F)C(F)(F)F.O=C(C=C([O-])C(F)(F)F)C(F)(F)F.O=C(C=C([O-])C(F)(F)F)C(F)(F)F.O=C(C=C([O-])C(F)(F)F)C(F)(F)F.O=C(C=C([O-])C(F)(F)F)C(F)(F)F.O=C(C=C([O-])C(F)(F)F)C(F)(F)F.[Co+2].[Co+2].[Co+2] [compound 4]
[1]
  Viscosity (cP): 31.6 cP
[2]
  μeff, effective magnetic moment: 8.57 μB
[3]; [6]
  Solubility: S^b (soluble in acetone, chloroform, dichloromethane, acetonitrile, methanol, ethanol, diethyl ether, ethyl acetate, and isopropanol at 20% (w/v).)
[3]; [7]
  Solubility: S^a (soluble in hexane, heptane, benzene, and toluene at 10% (w/v).)
[3]; [8]
  Solubility: S^c (soluble in hexane, heptane, benzene, and toluene at 20% (w/v).)
[3]; [9]
  Solubility: S^d (soluble in acetone, chloroform, dichloromethane, methanol, ethanol, diethyl ether, ethyl acetate, isopropanol hexane, heptane, benzene, and toluene at 50% (w/v).)
[3]; water at 0.01% (w/v)
  Solubility: S^f (insoluble in water at 0.01% (w/v).)
[4]
  Onset of MIL volatilization (° C.)^1: 185 °C
[5]
  Onset of MIL volatilization (° C.)^2: 262.9 °C

## CCCCCCCCOC(=O)COCC(=O)OCCCCCCCC.CCCCCCCCOC(=O)COCC(=O)OCCCCCCCC.CCCCCCCCOC(=O)COCC(=O)OCCCCCCCC.CCCCCCCCOC(=O)COCC(=O)OCCCCCCCC.CCCCCCCCOC(=O)COCC(=O)OCCCCCCCC.CCCCCCCCOC(=O)COCC(=O)OCCCCCCCC.O=C(C=C([O-])C(F)(F)F)C(F)(F)F.O=C(C=C([O-])C(F)(F)F)C(F)(F)F.O=C(C=C([O-])C(F)(F)F)C(F)(F)F.O=C(C=C([O-])C(F)(F)F)C(F)(F)F.O=C(C=C([O-])C(F)(F)F)C(F)(F)F.O=C(C=C([O-])C(F)(F)F)C(F)(F)F.[Mn+2].[Mn+2].[Mn+2] [compound 6]
[1]
  Viscosity (cP): 96.3 cP
[2]
  μeff, effective magnetic moment: 10.25 μB
[3]; [6]
  Solubility: S^b (soluble in acetone, chloroform, dichloromethane, acetonitrile, methanol, ethanol, diethyl ether, ethyl acetate, and isopropanol at 20% (w/v).)
[3]; [7]
  Solubility: S^a (soluble in hexane, heptane, benzene, and toluene at 10% (w/v).)
[3]; [8]
  Solubility: S^c (soluble in hexane, heptane, benzene, and toluene at 20% (w/v).)
[3]; [9]
  Solubility: S^d (soluble in acetone, chloroform, dichloromethane, methanol, ethanol, diethyl ether, ethyl acetate, isopropanol hexane, heptane, benzene, and toluene at 50% (w/v).)
[3]; water at 0.01% (w/v)
  Solubility: S^f (insoluble in water at 0.01% (w/v).)
[4]
  Onset of MIL volatilization (° C.)^1: 182 °C
[5]
  Onset of MIL volatilization (° C.)^2: 259.1 °C

## CCCCCCCCOC(=O)c1ccc(C(=O)OCCCCCCCC)o1.CCCCCCCCOC(=O)c1ccc(C(=O)OCCCCCCCC)o1.CCCCCCCCOC(=O)c1ccc(C(=O)OCCCCCCCC)o1.CCCCCCCCOC(=O)c1ccc(C(=O)OCCCCCCCC)o1.CCCCCCCCOC(=O)c1ccc(C(=O)OCCCCCCCC)o1.CCCCCCCCOC(=O)c1ccc(C(=O)OCCCCCCCC)o1.O=C(C=C([O-])C(F)(F)F)C(F)(F)F.O=C(C=C([O-])C(F)(F)F)C(F)(F)F.O=C(C=C([O-])C(F)(F)F)C(F)(F)F.O=C(C=C([O-])C(F)(F)F)C(F)(F)F.O=C(C=C([O-])C(F)(F)F)C(F)(F)F.O=C(C=C([O-])C(F)(F)F)C(F)(F)F.[Co+2].[Co+2].[Co+2] [compound 10]
[1]
  Viscosity (cP): 354.7^b cP
[2]
  μeff, effective magnetic moment: 8.27 μB
[3]; [6]
  Solubility: S^b (soluble in acetone, chloroform, dichloromethane, acetonitrile, methanol, ethanol, diethyl ether, ethyl acetate, and isopropanol at 20% (w/v).)
[3]; [7]
  Solubility: S^a (soluble in hexane, heptane, benzene, and toluene at 10% (w/v).)
[3]; [8]
  Solubility: S^c (soluble in hexane, heptane, benzene, and toluene at 20% (w/v).)
[3]; [9]
  Solubility: S^d (soluble in acetone, chloroform, dichloromethane, methanol, ethanol, diethyl ether, ethyl acetate, isopropanol hexane, heptane, benzene, and toluene at 50% (w/v).)
[3]; water at 0.01% (w/v)
  Solubility: S^f (insoluble in water at 0.01% (w/v).)
[4]
  Onset of MIL volatilization (° C.)^1: 147 °C
[5]
  Onset of MIL volatilization (° C.)^2: 163.0 °C
